Literature values in patent US20090182041A1, “CONTROL OF CANCER WITH ANNONACEOUS EXTRACTS” (NATURE'S SUNSHINE PRODUCTS, INC., priority 2002, published 2009).

Experiments:
[1] = test system: mitochondrial complex I (NADH: ubiquinone oxidoreductase); conditions: substantially purified form
[2] = test system: NADH oxidase found in the plasma membranes of tumor cells; conditions: substantially purified form

Compound | inhibition of complex I in the electron transport system in mitochondria [1] | inhibition of NADH oxidase in the plasma membranes of tumor cells [2]
CCCCCCCCCC[C@@H](O)[C@H]1CC[C@@H]([C@H]2CC[C@H]([C@H](O)CCCCCCCCCC[C@@H](O)CC3=C[C@H](C)OC3=O)O2)O1 [trilobacin] | most powerful inhibitors known | inhibit
asimicin | most powerful inhibitors known | inhibit
bullatacin | most powerful inhibitors known | inhibit
